We go through two compounds from patent EP0080779B1, “3-Benzazepines as alpha-2 antagonists” (SMITHKLINE BECKMAN CORPORATION, priority 1981, dated 1983).

The structures appear in SMILES notation.

The subject of data set [1] is DOCA-salt hypertensive rat. In words: antihypertensive activity in DOCA-salt hypertensive rat, oral administration. The data set is classed as in vivo. How it is done: (§1) Cannulas are run intradermally so as to be externalized in the dorso-sacral area of either side and kept in place by wound clips. The rats are allowed to regain consciousness after being placed in a small animal restrainer. The arterial cannula is connected to a pressure transducer for constant blood pressure and heart rate monitoring. Drugs are administered either orally via gavage or i.v. via the femoral vein cannula at a rate of 0.06 ml./minute.
(§2) The above test is conducted on both normotensive and hypertensive rats. DOCA Salt hypertensive rats are prepared from male uninephrectomized Sprague-Dawley rats. The rats, approximately six weeks of age, are lightly anesthetized with ether and subcutaneously implanted with a 25 mg. deoxycorticosterone acetate pellet in the left dorso-sacral area. Six days later a second pellet is implanted in the right dorso-sacral area. These rats are fed a normal laboratory diet, but are given 1% saline solution to drink in place of water. The rats are kept on the saline drinking water for 22-24 days.
The effect of the oral administration of 6-chloro-2,3,4,5-tetrahydro-3-methyl-1H-3-benzazepine on blood pressure in the DOCA-salt hypertensive rat was also determined.

Data set [2] relates to rabbit intraocular pressure. The data set is described as follows: normal rabbit intraocular pressure determination, instillation into the eye. The data set is classed as in vivo. The note with it: instilled into the rabbit eye; at one hour; relative to the untreated eye. Here is the method:
The measurement of intraocular pressure depends on subjecting the eye to a force that indents or flattens it. Either the effect of a particular force or the force for a given effect is measured. The specific procedure employed for the compounds of this invention is a normal rabbit intraocular pressure determination. A solution of 0.5% proparacaine hydrochloride diluted 1:10 with physiological saline is instilled into the eye of a rabbit. The lids are gently massaged over the cornea to insure good distribution of the solution. The eye is exposed by separating the lids and the tip of a probe is slowly placed on the cornea at the point where the curvature of the cornea is the greatest, i.e., on the optic axis. Employing an Alcon Applanation Pneumatonograph, the intraocular pressure is determined in each eye until a stable reading is obtained. West, C., Capelta, J. and Kaufman, H., Am. J. Ophthalmol. 74:505 (1972).
Nine rabbits are used in each study, three animals for each dose in most circumstances. […] Immediately following the initial reading, the formulations to be tested, comprising concentrations of 0.01 to 10% of active ingredient, are instilled and pressure readings are taken at 0.5, 1, 2, 3, 4, and 6 hours post-instillation. The intraocular pressure is determined from the value recorded on the pneumotonograph chart paper. A mean intraocular pressure value is calculated at each time point. […]

Data set [3] deals with normotensive and hypertensive rats. The data set is described as follows: antihypertensive activity in conscious cannulated rats, i.v. administration. It is filed as in vivo. Here is the method:
as §1, §2
The following table sets forth the effect of 6-chloro-2,3,4,5-tetrahydro-3-methyl-1 H-3-benzazepine on blood pressure after i.v. administration to both normotensive and hypertensive rats.

Data set [4] has as its system conscious normotensive rabbits. The data set is described as follows: rabbit intraocular pressure determination, compound given systemically (ear vein infusion). It is filed as in vivo. The note with it: given systemically to rabbits; result in words.
The next data set deals with alpha2 adrenoceptor. In words: prejunctional alpha2 antagonist activity, isolated superfused guinea pig left atrium (shift of the clonidine concentration-response curve). The data set is classed as cell-based. Here is the method: Briefly, the heart is removed from a pentobarbital-anesthetized male guinea pig. The left atrium is removed, dissected free of extraneous tissue and mounted in a 2 ml. superfusion chamber. The tissue is paced at 60 pulse/minute and the sympathetic nerves excited at 6 minute intervals by field stimulation. The response to nerve stimulation is measured as the difference in contractile force between the basal contraction and peak contraction following a nerve stimulation. A concentration-response curve for clonidine (alpha2 agonist) is prepared by administering an increasing concentration of clonidine following each successive stimulation. The tissue is then superfused with the alpha2 antagonist to be tested for thirty minutes and the clonidine concentration- effect curve was repeated in the presence of antagonist. The receptor dissociation constant of the antagonist (KB) is defined as the antagonist concentration required to shift the log concentration-response curve of the agonist to the right by a factor of 2.

As to `CN1CCc2cccc(Cl)c2CC1` [6-chloro-2,3,4,5-tetrahydro-3-methyl-1H-3-benzazepine], the “Δ BP” value was 17 ± 3 MM Hg in data set [1] (2 mg/kg PO), 34 ± 4 MM Hg in data set [1] (5 mg/kg PO) and 68 ± 8 MM Hg in data set [1] (10 mg/kg PO). Moreover, the “Mean Arterial Pressure Post-Drug” value in data set [1] (2 mg/kg PO, Pre-Drug 148 ± 11) was 131 ± 12; in data set [1] (5 mg/kg PO, Pre-Drug 160 ± 7), 127 ± 5; in data set [1] (10 mg/kg PO, Pre-Drug 167 ± 8) it was 99 ± 4. For the same compound, the “decrease of intraocular pressure” value in data set [2] is reported as 3.5 mm of mercury. In addition, the “Diastolic Blood Pressure Decrease BP” value in data set [3] (DOCA Salt Hypertensive rats, n = 4, 0.5 mg/kg I.V., Pre Drug 135 ± 5 MMHg) stood at 27 ± 3 MMHg; in data set [3] (DOCA Salt Hypertensive rats, n = 4, 1.0 mg/kg I.V., Pre Drug 135 ± 5 MMHg), 33 ± 4 MMHg; in data set [3] (Normotensive (control) (Sprague-Dawley) rats, n = 4, 0.5 mg/kg I.V., Pre Drug 95 ± 7 MMHg) it was 6 ± 2 MMHg; in data set [3] (Normotensive (control) (Sprague-Dawley) rats, n = 4, 1.0 mg/kg I.V., Pre Drug 95 ± 7 MMHg), 13 ± 1 MMHg; in data set [3] (Normotensive (control) (Wistar-Kyoto) rats, n = 4, 0.5 mg/kg I.V., Pre Drug 115 ± 3 MMHg), 7 ± 2 MMHg; in data set [3] (Normotensive (control) (Wistar-Kyoto) rats, n = 4, 1.0 mg/kg I.V., Pre Drug 115 ± 3 MMHg), 10 ± 2 MMHg. Moreover, the “Diastolic Blood Pressure Decrease BP” value was determined as 33 ± 7 MMHg in data set [3] (Spontaneously Hypertensive rats, n = 7, 0.5 mg/kg I.V., Pre Drug 167 ± 3 MMHg) and 46 ± 2 MMHg in data set [3] (Spontaneously Hypertensive rats, n = 7, 1.0 mg/kg I.V., Pre Drug 167 ± 3 MMHg). Also, in data set [4], the “effect on systemic blood pressure” value was “no significant effect”.
Consider `CN1CCc2ccc(Cl)cc2CC1` [7-chloro-2,3,4,5-tetrahydro-3-methyl-1H-3-benzazepine], for which the “alpha2 antagonist activity relative to the 6-chloro derivative” value in the data set with alpha2 adrenoceptor (comparison of KB values) is “about one tenth”. Besides, in the data set on alpha2 adrenoceptor (isolated perfused guinea pig left atrium, antagonist concentration shifting the clonidine curve to the right by a factor of 2), the antagonist equilibrium constant (Kb) is 0.15 µM.

In general, Kb refers to the affinity of an antagonist, worked out from how it opposes an agonist.
